In ChEMBL document CHEMBL1201862, “PubChem BioAssay data set” (2004):
The source made the active and inactive calls.

Legend:
[1] = target: T1, Fructose-bisphosphate aldolase (Mycobacterium tuberculosis, UniProt P9WQA3); assay: Fluorescence-based biochemical high throughput dose response assay for inhibitors of the fructose-bisphosphate aldolase (FBA) of M. tuberculosis.; format: functional
T1 sequence (P9WQA3 whole entry): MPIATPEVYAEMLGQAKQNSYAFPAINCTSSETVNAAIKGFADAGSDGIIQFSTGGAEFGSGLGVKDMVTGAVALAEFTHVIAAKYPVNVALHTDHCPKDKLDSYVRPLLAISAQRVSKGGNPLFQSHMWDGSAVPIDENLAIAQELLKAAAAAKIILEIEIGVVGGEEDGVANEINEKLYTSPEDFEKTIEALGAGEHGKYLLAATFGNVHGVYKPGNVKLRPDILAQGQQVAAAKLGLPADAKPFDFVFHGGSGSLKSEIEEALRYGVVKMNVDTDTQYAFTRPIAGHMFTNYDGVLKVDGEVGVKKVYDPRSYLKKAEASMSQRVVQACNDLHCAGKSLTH

[2] = fluconazole-exposed Candida albicans growth modulators – fluorescence, retest, confirmation (AID 2467); format: functional, cell-based
[3] = NIH-3T3 fibroblast cytotoxicity, dose response, cytotoxicity control, cell-based, fluorescence, Alamar Blue, secondary assay (AID 2327); format: functional;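 also: NIH-3T3 mouse fibroblasts cultured with fluconazole at 8 µg/mL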
Albumin = Albumin (Bos taurus, UniProt P02769); assay: Counterscreen for inhibitors of T-cell receptor (TCR)-CD3 interaction: Fluorescence-based biochemical high throughput dose response assay to identify inhibitors of T-cell receptor (TCR)-CD3 interaction using a TAMRA-labeled BSA probe.; format: functional
Albumin, sequence (P02769 whole entry): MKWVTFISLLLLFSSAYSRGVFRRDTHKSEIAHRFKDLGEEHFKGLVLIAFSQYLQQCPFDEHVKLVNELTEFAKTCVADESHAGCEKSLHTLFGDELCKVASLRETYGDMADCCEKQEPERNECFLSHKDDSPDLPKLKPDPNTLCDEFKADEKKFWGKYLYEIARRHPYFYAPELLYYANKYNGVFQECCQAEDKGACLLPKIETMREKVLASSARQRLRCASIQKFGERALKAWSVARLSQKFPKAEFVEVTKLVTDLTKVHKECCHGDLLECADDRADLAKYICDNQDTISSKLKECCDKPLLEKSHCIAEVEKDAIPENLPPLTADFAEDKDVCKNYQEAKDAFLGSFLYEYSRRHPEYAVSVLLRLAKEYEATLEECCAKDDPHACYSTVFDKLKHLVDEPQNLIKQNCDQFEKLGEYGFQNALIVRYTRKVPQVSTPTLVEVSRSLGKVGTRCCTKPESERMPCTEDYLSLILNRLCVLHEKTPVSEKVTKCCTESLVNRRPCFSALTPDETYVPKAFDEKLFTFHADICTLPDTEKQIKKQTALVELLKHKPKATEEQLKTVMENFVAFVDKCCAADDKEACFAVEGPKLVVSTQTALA

[4] = target: T2, Long-chain-fatty-acid--AMP ligase FadD28 (Mycobacterium tuberculosis, UniProt P9WQ59); assay: Fluorescence polarization aasay to screen for inhibitors that compete for the binding of FadD28 to a bisubstrate Measured in Biochemical System Using Plate Reader - 2147-01_Inhibitor_Dose_CherryPick_Activity.; format: functional, Mycobacterium tuberculosis H37Rv
T2 sequence (P9WQ59 whole entry): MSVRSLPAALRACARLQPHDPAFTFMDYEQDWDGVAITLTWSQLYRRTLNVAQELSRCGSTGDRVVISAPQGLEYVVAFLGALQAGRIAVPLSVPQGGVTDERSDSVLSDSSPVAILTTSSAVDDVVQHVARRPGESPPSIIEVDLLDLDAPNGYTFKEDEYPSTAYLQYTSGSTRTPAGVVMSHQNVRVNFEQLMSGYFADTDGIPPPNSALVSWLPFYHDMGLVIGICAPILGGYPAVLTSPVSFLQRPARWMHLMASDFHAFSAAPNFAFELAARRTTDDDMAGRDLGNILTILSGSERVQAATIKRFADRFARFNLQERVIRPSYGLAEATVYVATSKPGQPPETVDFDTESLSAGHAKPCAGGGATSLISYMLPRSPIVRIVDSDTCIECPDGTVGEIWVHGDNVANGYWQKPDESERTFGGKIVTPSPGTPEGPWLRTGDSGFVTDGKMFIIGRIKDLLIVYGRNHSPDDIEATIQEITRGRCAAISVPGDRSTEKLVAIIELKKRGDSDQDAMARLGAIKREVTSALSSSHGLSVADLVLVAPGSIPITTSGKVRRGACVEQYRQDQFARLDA

[5] = target: 5-hydroxytryptamine receptor 2A (Mus musculus, UniProt P35363); format: functional, cell-based;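 also: CHO-K1 cells with tagged receptor and beta-arrestin; agonist potency measured as compound-induced activation of the receptor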
5-hydroxytryptamine receptor 2A, sequence (P35363 whole entry): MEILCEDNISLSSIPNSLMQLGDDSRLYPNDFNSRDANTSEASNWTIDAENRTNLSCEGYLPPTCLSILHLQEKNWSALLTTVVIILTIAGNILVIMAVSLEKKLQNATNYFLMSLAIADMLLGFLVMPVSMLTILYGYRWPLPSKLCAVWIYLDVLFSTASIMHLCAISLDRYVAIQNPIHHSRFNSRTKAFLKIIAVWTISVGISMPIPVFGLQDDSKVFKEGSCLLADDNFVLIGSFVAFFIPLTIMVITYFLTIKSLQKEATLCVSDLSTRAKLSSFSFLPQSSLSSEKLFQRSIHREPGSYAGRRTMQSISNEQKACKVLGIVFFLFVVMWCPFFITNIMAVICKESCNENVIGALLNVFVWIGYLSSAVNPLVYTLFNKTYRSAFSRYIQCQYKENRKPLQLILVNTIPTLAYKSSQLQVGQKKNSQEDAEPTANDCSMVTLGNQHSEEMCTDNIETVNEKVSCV

Mu-type opioid receptor = Mu-type opioid receptor (Homo sapiens, UniProt P35372); format: functional, cell-based;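 also: U2OS cells with beta-arrestin recruitment to OPRM1 by beta-gal complementation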
Mu-type opioid receptor, sequence (P35372 whole entry): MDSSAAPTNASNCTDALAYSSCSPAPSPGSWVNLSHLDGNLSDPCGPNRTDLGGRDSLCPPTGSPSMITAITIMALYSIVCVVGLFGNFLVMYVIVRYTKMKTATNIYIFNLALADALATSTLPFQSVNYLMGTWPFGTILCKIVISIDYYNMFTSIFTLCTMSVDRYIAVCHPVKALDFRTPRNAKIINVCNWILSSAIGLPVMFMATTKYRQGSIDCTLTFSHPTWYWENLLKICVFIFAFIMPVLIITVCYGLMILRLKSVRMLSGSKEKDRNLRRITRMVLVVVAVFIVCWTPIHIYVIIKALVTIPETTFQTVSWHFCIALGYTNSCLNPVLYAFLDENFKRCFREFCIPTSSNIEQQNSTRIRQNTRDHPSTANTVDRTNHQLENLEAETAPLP

[6] = viability loss in HeLa cells – cytotoxicity control for MgcRacGAP inhibitor project, dose response (AID 624300); format: functional
[7] = target: T3, DNA repair and recombination protein RAD54-like (Homo sapiens, UniProt Q92698); assay: RAD54 Holliday junction migration blockers – biochemical, fluorescence, cherry-picked samples, dose series, confirmation (AID 651657); format: functional
T3 sequence (Q92698 whole entry): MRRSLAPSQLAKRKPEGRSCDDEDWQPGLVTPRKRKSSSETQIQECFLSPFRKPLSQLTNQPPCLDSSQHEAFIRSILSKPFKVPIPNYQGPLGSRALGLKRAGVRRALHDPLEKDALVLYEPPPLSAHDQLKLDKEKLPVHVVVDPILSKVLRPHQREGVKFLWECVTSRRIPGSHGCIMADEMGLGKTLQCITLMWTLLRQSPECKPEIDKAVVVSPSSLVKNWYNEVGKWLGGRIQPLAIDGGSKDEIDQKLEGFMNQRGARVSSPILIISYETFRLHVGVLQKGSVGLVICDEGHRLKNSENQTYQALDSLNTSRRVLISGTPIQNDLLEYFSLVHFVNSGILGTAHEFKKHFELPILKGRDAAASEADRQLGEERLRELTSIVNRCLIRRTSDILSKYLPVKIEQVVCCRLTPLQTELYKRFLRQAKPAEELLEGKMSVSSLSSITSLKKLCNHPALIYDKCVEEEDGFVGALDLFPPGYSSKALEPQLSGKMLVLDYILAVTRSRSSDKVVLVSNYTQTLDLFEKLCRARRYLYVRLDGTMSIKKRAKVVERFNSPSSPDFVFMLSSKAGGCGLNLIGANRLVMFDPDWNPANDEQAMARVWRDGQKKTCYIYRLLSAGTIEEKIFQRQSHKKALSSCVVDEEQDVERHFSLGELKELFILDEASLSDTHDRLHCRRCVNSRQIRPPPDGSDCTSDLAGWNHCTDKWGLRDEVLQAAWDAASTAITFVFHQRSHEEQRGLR

Large T antigen = Large T antigen (Simian virus 40, UniProt P03070); format: functional, Betapolyomavirus macacae;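 also: Confirmatory-stage PubChem screen for compounds that inhibit SV40 T antigen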
Large T antigen, sequence (P03070 whole entry): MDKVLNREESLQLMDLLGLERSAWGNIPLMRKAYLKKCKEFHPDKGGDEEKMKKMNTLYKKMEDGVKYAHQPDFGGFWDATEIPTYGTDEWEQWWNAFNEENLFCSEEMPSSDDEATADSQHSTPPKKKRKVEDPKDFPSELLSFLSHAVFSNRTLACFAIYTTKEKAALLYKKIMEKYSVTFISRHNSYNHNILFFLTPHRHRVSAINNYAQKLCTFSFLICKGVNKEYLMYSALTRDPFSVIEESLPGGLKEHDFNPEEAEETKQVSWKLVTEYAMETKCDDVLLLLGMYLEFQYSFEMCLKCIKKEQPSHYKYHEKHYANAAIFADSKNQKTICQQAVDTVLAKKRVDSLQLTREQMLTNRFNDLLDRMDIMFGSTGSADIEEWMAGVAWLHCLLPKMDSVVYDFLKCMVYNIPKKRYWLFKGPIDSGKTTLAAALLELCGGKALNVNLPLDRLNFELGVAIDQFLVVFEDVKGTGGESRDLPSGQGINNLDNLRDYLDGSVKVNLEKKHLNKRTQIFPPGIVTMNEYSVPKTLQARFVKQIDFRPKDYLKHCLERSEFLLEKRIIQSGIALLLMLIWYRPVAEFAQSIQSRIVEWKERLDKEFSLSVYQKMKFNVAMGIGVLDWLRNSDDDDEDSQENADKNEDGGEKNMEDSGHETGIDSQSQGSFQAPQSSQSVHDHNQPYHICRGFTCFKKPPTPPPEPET

[8] = Luminescence Cell-Based Dose Confirmation HTS to Identify Inhibitors of Platelet Dense Granule Release. [Related pubchem assays: 1663 (Primary HTS), 1678 (Summary of Project)]; format: functional
[9] = target: Luciferin 4-monooxygenase (Photinus pyralis, UniProt P08659); assay: inhibition of purified Photinus pyralis luciferase – biochemical, luminescence, dose response (AID 1891)
Luciferin 4-monooxygenase, sequence (P08659 whole entry): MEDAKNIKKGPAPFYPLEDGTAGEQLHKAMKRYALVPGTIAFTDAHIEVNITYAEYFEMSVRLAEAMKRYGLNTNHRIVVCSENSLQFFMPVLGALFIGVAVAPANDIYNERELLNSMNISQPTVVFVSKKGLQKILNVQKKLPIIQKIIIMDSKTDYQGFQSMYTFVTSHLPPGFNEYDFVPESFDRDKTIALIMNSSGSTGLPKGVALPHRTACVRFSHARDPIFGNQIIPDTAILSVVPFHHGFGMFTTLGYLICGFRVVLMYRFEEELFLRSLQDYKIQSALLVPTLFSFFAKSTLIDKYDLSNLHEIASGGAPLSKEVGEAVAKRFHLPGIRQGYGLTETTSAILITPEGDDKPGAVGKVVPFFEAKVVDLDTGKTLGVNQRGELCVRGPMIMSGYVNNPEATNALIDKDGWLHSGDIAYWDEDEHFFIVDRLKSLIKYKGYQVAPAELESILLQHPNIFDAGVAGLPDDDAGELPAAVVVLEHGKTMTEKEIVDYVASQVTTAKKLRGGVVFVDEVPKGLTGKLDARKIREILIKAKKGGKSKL

[10] = target: T4, Rac GTPase-activating protein 1 (Homo sapiens, UniProt Q9H0H5); assay: blockers of MgcRacGAP-driven Rac1 GTP hydrolysis – biochemical, ADP Hunter fluorescence, primary and confirmatory, confirmation (AID 624330); format: functional
T4 sequence (Q9H0H5 whole entry): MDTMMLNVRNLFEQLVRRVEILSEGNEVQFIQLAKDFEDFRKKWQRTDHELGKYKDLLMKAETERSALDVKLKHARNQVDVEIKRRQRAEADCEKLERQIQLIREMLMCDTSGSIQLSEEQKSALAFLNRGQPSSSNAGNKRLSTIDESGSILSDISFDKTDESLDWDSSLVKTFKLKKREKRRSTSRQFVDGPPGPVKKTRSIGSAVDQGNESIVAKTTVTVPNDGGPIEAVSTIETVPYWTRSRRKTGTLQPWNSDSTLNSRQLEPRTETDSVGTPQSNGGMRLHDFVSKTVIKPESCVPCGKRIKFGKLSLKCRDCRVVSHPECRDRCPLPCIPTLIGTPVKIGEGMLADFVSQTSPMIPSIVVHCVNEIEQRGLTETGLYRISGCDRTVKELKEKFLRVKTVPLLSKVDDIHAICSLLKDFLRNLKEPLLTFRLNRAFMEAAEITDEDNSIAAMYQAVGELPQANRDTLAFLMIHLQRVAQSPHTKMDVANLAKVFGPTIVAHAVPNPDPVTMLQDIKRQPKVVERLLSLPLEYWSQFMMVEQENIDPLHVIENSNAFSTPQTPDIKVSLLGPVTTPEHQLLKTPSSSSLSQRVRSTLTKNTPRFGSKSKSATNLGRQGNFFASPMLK

[11] = activation of miR-122 Renilla sensor silencing – cell-based, Huh7 psiCHECK-miR122, Renilla luciferase, cherry-picked, dose response (AID 651956); format: functional;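 also: huh7 hepatoma cells stably carrying a psiCHECK-2 miR-122 sensor plasmid; renilla luciferase signal reporting endogenous miR-122 activity after 48 h compound exposure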

Compound: CCOc1ccc(NC(=O)NNC(=O)c2ccc3ccccc3c2O)cc1
- IC50 [1]: 3.15 µM (active)
- EC50 [2]: 2.58 µM (active)
- EC50 [3]: > 150 µM (inactive)
- IC50 (Albumin): > 94.1 µM (inactive)

Compound: CN(C)S(=O)(=O)c1cccc(NC(=O)CCc2c[nH]c3ccccc23)c1
- AC50 [4]: 97.9 µM (active)

Compound: CC(=O)NC(CC(=O)NNC(=O)c1cc2ccccc2cc1O)c1ccccc1 (stereo not drawn)
- EC50 [2]: > 38 µM (not active)
- EC50 [3]: > 160 µM (inactive)
- IC50 (Albumin): > 94.1 µM (inactive)

Compound: Cc1nc(-c2nc(-c3c(C(=O)NNC(=O)Nc4cccc(Cl)c4)noc3C)cs2)cs1
- EC50 [5]: 6.23 µM (active)
- EC50 (Mu-type opioid receptor): 92.5 µM (inactive)

Compound: CNC(=O)Oc1ccc(-c2cn3cc(C)ccc3n2)cc1
- CC50 [6]: 100 µM (active)

Compound: Cc1cccc(N2CCN(CC(O)COc3ccc4ccccc4c3)CC2)c1 (stereo not drawn)
- EC50 [5]: 76 µM (inactive)
- EC50 (Mu-type opioid receptor): 92.4 µM (inactive)

Compound: CN1CCN(c2ccc(CNC(=O)C3Cc4c(-c5ccc(Cl)cc5)ccnc4O3)cc2)CC1 (stereo not drawn)
- AC50 [7]: 72.1 µM (active)

Compound: COc1cc(/C=N/Nc2nncn2/N=C/c2ccc(O)c(OC)c2)ccc1O
- IC50 (Large T antigen): 12.9 µM (active)
- EC50 [8]: 2.63 µM (active)
- EC50 [9]: 0.658 µM (active)
- IC50 [10]: 43.6 µM (active)
- CC50 [6]: 10.7 µM (active)

Compound: CN(C)C(=O)c1ccc(-c2ccc([C@H]3[C@@H](CO)N4CCCCN(C(=O)C5CCCC5)C[C@@H]34)cc2)cc1
- AC50 [11]: 49 µM (active)

Compound: CC(C)CC#Cc1ccc2c(c1)O[C@H](CN(C)C(=O)c1cnccn1)[C@H](C)CN([C@@H](C)CO)S2(=O)=O
- AC50 [11]: 10.5 µM (active)

Compound: COc1cccc(OC)c1OCCN1CCN(C(=O)c2ccco2)CC1
- EC50 [5]: 3.12 µM (active)
- EC50 (Mu-type opioid receptor): 92.4 µM (inactive)
